Test results published in patent publication US5229381A, “Substituted azetidinones as anti-inflammatory and antidegenerative agents” (Merck & Co., Inc., priority 1991, dated 1993).

Molecular target: T1, human polymorphonuclear leukocyte elastase (Homo sapiens, UniProt P08246)
T1 construct: Crude extract of human polymorphonuclear leukocytes (PMN) containing elastase activity; endogenous in cells; host or cells: human polymorphonuclear leukocytes (crude extract)
T1 sequence (P08246 30-247 limits assumed): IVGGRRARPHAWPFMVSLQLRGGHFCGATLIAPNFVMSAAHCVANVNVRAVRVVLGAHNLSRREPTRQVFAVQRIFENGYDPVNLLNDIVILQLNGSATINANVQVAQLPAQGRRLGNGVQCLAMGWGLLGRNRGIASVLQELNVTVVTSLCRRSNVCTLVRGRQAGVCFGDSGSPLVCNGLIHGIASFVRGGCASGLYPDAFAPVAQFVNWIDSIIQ
Assay: Inhibition of human polymorphonuclear leukocyte (granulocyte) elastase via hydrolysis of Boc-AAPAN or Boc-AAPVN
Assay type: biochemical
Settings: Table I; 2 min after time zero; crude PMN extract, pH 7.5

ID50, effective dosage for 50% inhibition of the enzyme activity two minutes after time zero [µg/mL]	SMILES
3000	CC(=O)OC1CC(=O)N1C(C)=O (centres unmarked) [Table I: H; H; OCOCH3; COCH3]
10000	CC(=O)N1C(=O)CC1[S+](C)[O-] (centres unmarked) [Table I: H; H; SOCH3; COCH3, 1-acetyl-4-methylsulfinylazetidine-2-one]

Same assay, conditions: Table I; read-out: Ki, concentration of the inhibitor giving 50% of the control enzyme activity

SMILES	Ki [nM]
CCC1C(=O)N(C(=O)CCC(=O)O)C1OC(C)=O (centres unmarked)	1430
CCOC(=O)N1C(=O)[C@H](CC)[C@H]1Oc1ccc(C(=O)O)cc1 (relative stereo)	2100

Same assay, conditions: pH 7.5, Table I; read-out: kobs/I, second order rate constant of inactivation of the enzyme

kinact/KI [M⁻¹ s⁻¹]	SMILES
1500	CCC[C@H]1C(=O)N(C(=O)OCC)[C@@H]1OCC(=O)O (relative stereo)
1550	CC[C@H]1C(=O)N(S(=O)(=O)c2ccc(C)cc2)[C@H]1C(=O)OCC(=O)O (relative stereo)
346	CCOC(=O)N1C(=O)[C@H](CC)[C@H]1OC(C)C(=O)O (relative stereo)

Same assay, conditions: pH 7.5, Table II, (per mole per second); read-out: kobs/I, second order rate constant of inactivation of the enzyme

SMILES	kinact/KI [M⁻¹ s⁻¹]
CCC1(CC)C(=O)N(C(=O)NCC2CCCCC2)C1Oc1ccc(C(=O)O)cc1 (centres unmarked)	1420
CCC1(CC)C(=O)N(C(=O)NCc2ccccc2)C1n1ccnc1 (centres unmarked)	200
CCC1(C)C(=O)N(C(=O)NCC(C)c2ccccc2)C1Oc1ccc(C(=O)O)cc1 (centres unmarked)	2550
CCC1(CC)C(=O)N(C(=O)NCc2ccccc2)C1Oc1cccc(C(=O)NCc2ccccc2)c1 (centres unmarked)	3050
CCC1(C)C(=O)N(C(=O)NCc2cc(C)c(C(=O)O)c(C)c2)C1Oc1ccc(C(=O)O)cc1 (centres unmarked)	5600
CCCC1(CC)C(=O)N(C(=O)NC(CC)c2ccccc2)C1Oc1ccc(C(=O)CCC(=O)O)cc1 (centres unmarked)	87000
CCC1C(=O)N(C(=O)NCc2ccccc2)C1Oc1ccc(C(=O)O)cc1 (centres unmarked) [Table II: C2 H5; H; O-(4-COOHPh); CH2 Ph]	4000
CCC(NC(=O)N1C(=O)C(C)(CC)C1Oc1ccc(C(=O)O)cc1)c1ccc2occc2c1 (centres unmarked)	750000
CCCC1C(=O)N(C(=O)NCc2ccccc2)C1Oc1ccc(C(=O)O)cc1 (centres unmarked) [Table II: C3 H7; H; O-(4-COOHPh); CH2 Ph]	5000

Results, then the compound that gave them:

kinact/KI [M⁻¹ s⁻¹]	SMILES
1700	CCC1(CC)C(=O)N(C(=O)NCc2ccccc2)C1Oc1ccc([N+](C)(C)C)cc1 (centres unmarked)
5560	CCC1(CC)C(=O)N(C(=O)NCc2ccccc2)C1Oc1ccc2cc(C(=O)O)ccc2c1 (centres unmarked)
1500	CCC1(CC)C(=O)N(C(=O)NCc2ccc(C(=O)O)cc2)C1Oc1ccccc1 (centres unmarked)
2500	CCCC1(CCC)C(=O)N(C(=O)NCc2ccccc2)C1Oc1ccc(C(=O)O)cc1 (centres unmarked)
3180	CCC1(CC)C(=O)N(C(=O)NCc2ccccc2)C1Oc1ccc(CC(=O)O)cc1 (centres unmarked)
51000	CCCC1(CC)C(=O)N(C(=O)NCc2ccc3ccccc3c2)C1Oc1ccc(C(=O)O)cc1 (centres unmarked)
9980	CCC1(CC)C(=O)N(C(=O)NCc2ccc(N(C)C)cc2)C1Oc1ccc(C(=O)O)cc1 (centres unmarked)
107000	CCC1(CC)C(=O)N(C(=O)NCc2ccc(-c3ccccc3)cc2)C1Oc1ccc(C(=O)CCC(=O)O)cc1 (centres unmarked)
4920	CCC1(CC)C(=O)N(C(=O)NCc2cccs2)C1Oc1ccc(C(=O)O)cc1 (centres unmarked)
3500	CCC1(CC)C(=O)N(C(=O)NCc2ccccc2)C1Oc1ccc(NC(C)=O)cc1 (centres unmarked)
2000	CC[C@@]1(C)C(=O)N(C(=O)NCc2ccccc2)[C@H]1Oc1ccc(C(=O)O)cc1 [(3R,4S)-1-(benzylaminocarbonyl)-3-ethyl-3-methyl-4-(4-carboxy)phenoxyazetidin-2-one]
1760	CCC1(CC)C(=O)N(C(=O)NCc2ccccc2)C1Oc1cccc(C(=O)O)c1 (centres unmarked)
5160	CCC1(CC)C(=O)N(C(=O)NCc2ccc(OC)cc2)C1Oc1ccc(C(=O)O)cc1 (centres unmarked)
5920	CCC1(CC)C(=O)N(C(=O)NCc2ccc(C(C)=O)cc2)C1Oc1ccc(C(C)=O)cc1 (centres unmarked)
3960	CCC1(CC)C(=O)N(C(=O)NCc2ccc(C)cc2)C1Oc1ccc(C(=O)O)cc1 (centres unmarked)

Same assay, conditions: pH 7.5, Table III, (per mole per second); read-out: kobs/I, second order rate constant of inactivation of the enzyme

SMILES	kinact/KI [M⁻¹ s⁻¹]
CCC1(CC)C(=O)N(C(=O)NCc2ccccc2)C1n1cnnn1 (centres unmarked) [Table III: 1-tetrazolyl; CH2 Ph]	948
CCC1(CC)C(=O)N(C(=O)NCc2ccccc2)C1n1ccccc1=O (centres unmarked) [Table III: [2H-1-pyridonyl]; CH2 Ph]	357
CCC1(CC)C(=O)N(C(=O)NCC2CCC3CCCCC3C2)C1Oc1ccc(C(=O)O)cc1 (centres unmarked) [Table III: O-(4-COOHPh); drawing 41]	4160
CCC(NC(=O)N1C(=O)C(CC)(CC)C1OCC(=O)O)c1ccccc1 (centres unmarked) [Table III: OCH2COOH; CH(Et)Ph]	5710
CCC(NC(=O)N1C(=O)C(CC)(CC)C1OCC(N)=O)c1ccccc1 (centres unmarked) [Table III: OCH2CONH2; CH(Et)Ph]	103000
CCC1(CC)C(=O)N(C(=O)NCc2ccccc2)C1Oc1ccccc1CCCN(C)C (centres unmarked) [Table III: O-(2-(CH2)3 NMe2Ph); CH2 Ph]	629

The next lines start with the values.

kinact/KI [M⁻¹ s⁻¹]	SMILES
40600	CCC1(CC)C(=O)N(C(=O)NCc2ccc3cc(C(=O)O)ccc3c2)C1Oc1ccc(C(N)=O)cc1 (centres unmarked)
21800	CCC1(CC)C(=O)N(C(=O)NCc2ccc(C(C)(C)C)cc2)C1Oc1ccc(C(=O)O)cc1 (centres unmarked) [Table III: O-(4-COOHPh); CH2 Ph(4-tBu)]
62900	CCC1(CC)C(=O)N(C(=O)NCc2ccc3c(c2)CCCC3)C1Oc1ccc(C(=O)O)cc1 (centres unmarked)
14700	CCC1(CC)C(=O)N(C(=O)NCc2ccc(-c3cccc(C(=O)O)c3)cc2)C1Oc1ccc(C(=O)O)cc1 (centres unmarked)
12000	CCC1(CC)C(=O)N(C(=O)NCc2ccc(OCc3ccccc3)cc2)C1Oc1ccc(C(=O)O)cc1 (centres unmarked)
51800	CCC1(CC)C(=O)N(C(=O)NCc2ccc(-c3ccccc3)cc2)C1OCC(N)=O (centres unmarked) [Table III: OCH2 CONH2; CH2Ph-4-Ph]
1460	CCC1(CC)C(=O)N(C(=O)NCc2ccccc2O)C1Oc1ccc(C(=O)O)cc1 (centres unmarked) [Table III: O-(4-COOHPh); CH2 Ph(2-OH)]
20600	CCC1(CC)C(=O)N(C(=O)NCc2ccc(C)c(C)c2)C1Oc1ccc(C(=O)O)cc1 (centres unmarked)
2040	CCC1(CC)C(=O)N(C(=O)NCc2ccc(C(=O)N3CCOCC3)cc2)C1Oc1ccc(C(=O)O)cc1 (centres unmarked) [Table III: O-(4-COOHPh); drawing 43]

Same assay, conditions: pH 7.5, Table IV, (per mole per second); read-out: kobs/I, second order rate constant of inactivation of the enzyme

kinact/KI [M⁻¹ s⁻¹]	SMILES
5980	CCC1C(=O)N(C(=O)N(Cc2ccccc2)Cc2ccccc2)C1Oc1ccc(C(=O)O)cc1 (centres unmarked)
83000	CCC1C(=O)N(C(=O)N(CC)Cc2ccccc2)C1Oc1ccc(C(=O)O)cc1 (centres unmarked)
10100	CCC1C(=O)N(C(=O)N2CCc3ccccc3C2)C1Oc1ccc(C(=O)O)cc1 (centres unmarked) [Table IV: C2 H5; H; O-(4-COOHPh); drawing 46]
227000	CCOC(=O)c1ccc(COC(=O)N2C(=O)C(CC)C2Oc2ccc(C(=O)O)cc2)cc1 (centres unmarked)
847000	CCC[C@@H](NC(=O)N1C(=O)C(CC)(CC)C1Oc1ccc(CC(=O)O)cc1)c1ccc2occc2c1 (some centres unmarked)

Same assay, conditions: pH 7.5, Table V, (per mole per second); read-out: kobs/I, second order rate constant of inactivation of the enzyme

kinact/KI [M⁻¹ s⁻¹]	SMILES
25000	CCC1(CC)C(=O)N(C(=O)N[C@H](Cc2ccccc2)c2ccccc2)[C@H]1Oc1ccc(C(=O)O)cc1 [Table V: 4-COOH; PhCH2; H]

Same assay, conditions: pH 7.5, Table VI, (per mole per second); read-out: kobs/I, second order rate constant of inactivation of the enzyme

SMILES	kinact/KI [M⁻¹ s⁻¹]
CCC1(CC)C(=O)N(C(=O)N[C@H](C)c2ccccc2)[C@H]1Oc1ccc(C=CC(=O)O)cc1 [Table VI: 4-CHCHCOOH; Me; H]	9100
C=CC[C@@H](NC(=O)N1C(=O)C(CC)(CC)[C@@H]1Oc1ccc(CC(=O)O)cc1)c1ccc2c(c1)OCO2 [(4S)-3,3-diethyl-1-[(R)-α-allyl-(3,4-methylenedioxy)-benzylaminocarbonyl]-4-[(4-carboxymethyl)phenoxy]azetidin-2-one]	605000
CCC[C@@H](NC(=O)N1C(=O)C(CC)(CC)[C@@H]1Oc1ccc(CC(=O)O)c(C)c1)c1ccc(C)cc1 [Table VI: 3-Me,4-CH2 COOH; nPr; 4-Me]	998000

Next, values leading:

kinact/KI [M⁻¹ s⁻¹]	SMILES
177000	CCC1(CC)C(=O)N(C(=O)N[C@@H](c2ccccc2)C(C)C)[C@H]1Oc1ccc(C(=O)O)cc1 [Table VI: 4-COOH; iPr; H]
8370	CCC1(CC)C(=O)N(C(=O)N[C@H](C)c2ccccc2)[C@H]1Oc1ccc(CC(=O)O)cc1 [Table VI: 4-CH2 COOH; Me; H]
76200	CC[C@@H](NC(=O)N1C(=O)C(CC)(CC)[C@@H]1Oc1ccc(C(=O)O)cc1)c1ccccc1 [Table VI: 4-COOH; Et; H]
557000	CCC[C@@H](NC(=O)N1C(=O)C(CC)(CC)[C@@H]1Oc1ccc(CC(=O)O)cc1)c1ccc(C)cc1 [Table VI: 4-CH2 COOH; nPr; 4-Me, (4S)-3,3-diethyl-1-[(R)-α-n-propyl-(4-methyl)-benzylaminocarbonyl]-4-[(4-carboxymethyl)-phenoxy]azetidin-2-one]
9480	CCC1(CC)C(=O)N(C(=O)N[C@H](C)c2ccccc2)[C@H]1Oc1ccc(CCC(=O)O)cc1 [Table VI: 4-(CH2)2 COOH; Me; H]
245000	CCC1(CC)C(=O)N(C(=O)N[C@H](C)c2ccc(-c3ccccc3Cl)cc2)[C@H]1Oc1ccc(C(=O)O)cc1 [Table VI: 4-COOH; Me; 4-(2'-ClPh)]
4020	CCC1(CC)C(=O)N(C(=O)N[C@H](C)c2ccccc2)[C@H]1Oc1ccc(C(=O)O)cc1 [Table VI: 4-COOH; Me; H]
49200	CCC1(CC)C(=O)N(C(=O)N[C@@H](C)c2ccc(-c3ccccc3)cc2)[C@H]1Oc1ccc(C(=O)O)cc1 [Table VI: 4-COOH; Me(s); 4-Ph]

Same assay, conditions: pH 7.5, read-out: kobs/I, second order rate constant of inactivation of the enzyme

SMILES	kinact/KI [M⁻¹ s⁻¹]
CCC1C(=O)N(C(=O)CCC(=O)O)C1OC(C)=O (centres unmarked)	2250
CCOC(=O)N1C(=O)[C@H](CC)[C@H]1Oc1ccc(C(=O)O)cc1 (relative stereo)	8680
